According to article PMC6691761, “Potential multifunctional agents with anti-hepatoma and anti-inflammation properties by inhibiting NF-кB activation” (Journal of Enzyme Inhibition and Medicinal Chemistry, 2019):

Assays:
Type in all cases: cell-based
[1] = system: human normal hepatic cell line (LO2); test: Toxicity to normal cells, MTT assay, LO2; settings: 24 h
Text: (§1) Compounds 83–102 were screened against human neoplastic cell lines, such as human breast cancer cells (MCF-7), human colon cancer cells (HCT116), human lung carcinoma cells (A549), human gastric adenocarcinoma cells (SGC7901), human liver hepatocellular carcinoma cell line (HepG2), human cervical carcinoma cells (HeLa), human acute mononuclear granulocyte leukaemia (THP-1), and human normal hepatic cell line (LO2) using modified MTT assay. All the cells were obtained from the American Type Culture Collection (ATCC, Manassas, VA). The cells were cultured in DMEM or 1640. Positive controls (Doxorubicin (DOX) and Curcumin) and BAPs were initially dissolved in dimethyl sulphoxide (DMSO). Experimental concentration of DMSO was always 0.1% (v/v). The concentrations of BAPs and positive controls were 50, 20, 10, 5, 2.5, 1, 0.5, 0.1, 0.05, and 0.01 μg/mL.
(§2) The cells (1 × 10^4 cells/well) were seeded in a 96-well plate and incubated for 24 h. Cells treated with serial concentrations of drugs were incubated for another 24 h. After the media removed, 20 μL of MTT (5 mg/mL) solution was added and incubated for 4 h at 37 °C. The MTT solution was removed and then 150 μL of DMSO was added. The optical density was measured with a multi-well plate reader (TECAN, Mӓnnedorf, Switzerland) at 570 nm. The results are expressed as a decrease in the cell viability (%) in comparison to untreated controls. The concentration of each compound was examined in triplicate, and the IC50 values are expressed in Table 1.

[2] = system: human lung carcinoma cells (A549); test: Cytotoxicity, MTT assay, A549; settings: for IC50: MTT, 24 h; for A549 SI (selectivity index): quotient of IC50 towards LO2 cells
Text: as §1, §2

[3] = system: human colon cancer cells (HCT116); test: Cytotoxicity, MTT assay, HCT116; settings: for IC50: MTT, 24 h; for HCT116 SI (selectivity index): quotient of IC50 towards LO2 cells
Text: as §1, §2

[4] = system: human gastric adenocarcinoma cells (SGC7901); test: Cytotoxicity, MTT assay, SGC7901; settings: for IC50: MTT, 24 h; for SGC7901 SI (selectivity index): quotient of IC50 towards LO2 cells
Text: as §1, §2

[5] = system: human liver hepatocellular carcinoma cell line (HepG2); test: Cytotoxicity, MTT assay, HepG2; settings: for IC50: MTT, 24 h; for HepG2 SI (selectivity index): quotient of IC50 towards LO2 cells
Text: as §1, §2

[6] = system: human cervical carcinoma cells (HeLa); test: Cytotoxicity, MTT assay, HeLa; settings: for IC50: MTT, 24 h; for HeLa SI (selectivity index): quotient of IC50 towards LO2 cells
Text: as §1, §2

[7] = system: human acute mononuclear granulocyte leukaemia (THP-1); test: Cytotoxicity, MTT assay, THP-1; settings: for IC50: MTT, 24 h; for THP-1 SI (selectivity index): quotient of IC50 towards LO2 cells
Text: as §1, §2

[8] = system: human breast cancer cells (MCF-7); test: Cytotoxicity, MTT assay, MCF-7; settings: for IC50: MTT, 24 h; for MCF-7 SI (selectivity index): quotient of IC50 towards LO2 cells
Text: as §1, §2

COc1ccc(/C=C2\CN(C)C/C(=C\c3cc(OC)c(OC)c(OC)c3)C2=O)cc1 [Compound 90]
IC50 [1]: 16.5 ± 0.1 µM
IC50 [2]: 5.8 ± 0.2 µM
A549 SI (selectivity index) [2]: 2.8
IC50 [3]: 12.1 ± 0.4 µM
HCT116 SI (selectivity index) [3]: 1.4
IC50 [4]: 7 ± 0.4 µM
SGC7901 SI (selectivity index) [4]: 2.4
IC50 [5]: 8.2 ± 0.6 µM
HepG2 SI (selectivity index) [5]: 2.0
IC50 [6]: 15.5 ± 0.2 µM
HeLa SI (selectivity index) [6]: 1.1
IC50 [7]: 5 ± 0.3 µM
THP-1 SI (selectivity index) [7]: 3.3
IC50 [8]: 15.5 ± 0.9 µM
MCF-7 SI (selectivity index) [8]: 1.1

CN1C/C(=C\c2cccc([N+](=O)[O-])c2)C(=O)/C(=C/c2cc(F)ccc2F)C1 [Compound 86]
IC50 [1]: 21.3 ± 0.4 µM
IC50 [2]: 9.3 ± 0.4 µM
A549 SI (selectivity index) [2]: 2.3
IC50 [3]: 10.5 ± 0.9 µM
HCT116 SI (selectivity index) [3]: 2.0
IC50 [4]: 20.5 ± 0.5 µM
SGC7901 SI (selectivity index) [4]: 1.0
IC50 [5]: 9.2 ± 0.4 µM
HepG2 SI (selectivity index) [5]: 2.3
IC50 [6]: 11.5 ± 0.8 µM
HeLa SI (selectivity index) [6]: 1.9
IC50 [7]: 7 ± 0.2 µM
THP-1 SI (selectivity index) [7]: 3.0
IC50 [8]: 11.1 ± 0.7 µM
MCF-7 SI (selectivity index) [8]: 1.9

CN1CC(=Cc2cccc(N=Cc3ccc(Cl)cc3)c2)C(=O)C(=Cc2ccccc2F)C1 [Compound 94]
IC50 [1]: 18 ± 0.3 µM
IC50 [2]: 5.9 ± 0.3 µM
A549 SI (selectivity index) [2]: 3.1
IC50 [3]: 6.3 ± 0.1 µM
HCT116 SI (selectivity index) [3]: 2.9
IC50 [4]: 6.4 ± 0.1 µM
SGC7901 SI (selectivity index) [4]: 2.8
IC50 [5]: 4.8 ± 0.1 µM
HepG2 SI (selectivity index) [5]: 3.8
IC50 [6]: 11.1 ± 0.3 µM
HeLa SI (selectivity index) [6]: 1.6
IC50 [7]: 4 ± 0.1 µM
THP-1 SI (selectivity index) [7]: 4.5
IC50 [8]: 6.5 ± 0.1 µM
MCF-7 SI (selectivity index) [8]: 2.8

COc1cc(/C=C2\CN(C)C/C(=C\c3ccc(F)cc3Br)C2=O)cc(OC)c1OC [Compound 88]
IC50 [1]: 14.8 ± 0.3 µM
IC50 [2]: 5.6 ± 0.3 µM
A549 SI (selectivity index) [2]: 2.6
IC50 [3]: 6.5 ± 0.3 µM
HCT116 SI (selectivity index) [3]: 2.3
IC50 [4]: 3.6 ± 0.1 µM
SGC7901 SI (selectivity index) [4]: 4.1
IC50 [5]: 5.3 ± 0.2 µM
HepG2 SI (selectivity index) [5]: 2.8
IC50 [6]: 5.3 ± 0.3 µM
HeLa SI (selectivity index) [6]: 2.8
IC50 [7]: 7.6 ± 0.2 µM
THP-1 SI (selectivity index) [7]: 1.9
IC50 [8]: 6.3 ± 0.4 µM
MCF-7 SI (selectivity index) [8]: 2.3

COc1cc(Br)c(O)c(C=Nc2cccc(C=C3CN(C)CC(=Cc4ccccc4F)C3=O)c2)c1 [Compound 102]
IC50 [1]: 14.8 ± 0.1 µM
IC50 [2]: 13.4 ± 0.7 µM
A549 SI (selectivity index) [2]: 1.1
IC50 [3]: 18.1 ± 1.9 µM
HCT116 SI (selectivity index) [3]: 0.8
IC50 [4]: 7 ± 0.4 µM
SGC7901 SI (selectivity index) [4]: 2.1
IC50 [5]: 5.9 ± 0.1 µM
HepG2 SI (selectivity index) [5]: 2.5
IC50 [6]: 9.1 ± 0.2 µM
HeLa SI (selectivity index) [6]: 1.6
IC50 [7]: 5 ± 0.2 µM
THP-1 SI (selectivity index) [7]: 3.0
IC50 [8]: 15.5 ± 1.2 µM
MCF-7 SI (selectivity index) [8]: 1.0

CN1C/C(=C\c2cccc([N+](=O)[O-])c2)C(=O)/C(=C/c2ccccc2F)C1 [Compound 83, (3E,5E)-3–(2-fluorobenzylidene)-1-methyl-5–(3-nitrobenzylidene)piperidin-4-one]
IC50 ([1]; Homo sapiens): 13.1 ± 0.8 µM
IC50 ([2]; Homo sapiens, A549, 24 h): 2.3 ± 0.2 µM
A549 SI (selectivity index) [2]: 5.7
IC50 ([3]; Homo sapiens, HCT-116): 6.2 ± 0.6 µM
HCT116 SI (selectivity index) [3]: 2.1
IC50 ([4]; Homo sapiens, SGC-7901): 3.7 ± 0.3 µM
SGC7901 SI (selectivity index) [4]: 3.5
IC50 ([5]; Homo sapiens, HepG2, 24 h): 1.2 ± 0.2 µM
IC50 ([6]; Homo sapiens, HeLa): 2.5 ± 0.3 µM
HeLa SI (selectivity index) [6]: 5.2
IC50 ([7]; Homo sapiens, THP-1, 24 h): 1.3 ± 0.1 µM
IC50 ([8]; Homo sapiens, MCF7): 7.2 ± 0.3 µM
MCF-7 SI (selectivity index) [8]: 1.8

CN1C/C(=C\c2cccc([N+](=O)[O-])c2)C(=O)/C(=C/c2ccc(F)cc2Br)C1 [Compound 87]
IC50 [1]: 13.7 ± 0.5 µM
IC50 [2]: 4.3 ± 0.3 µM
A549 SI (selectivity index) [2]: 3.2
IC50 [3]: 7.7 ± 0.4 µM
HCT116 SI (selectivity index) [3]: 1.8
IC50 [4]: 4.7 ± 0.3 µM
SGC7901 SI (selectivity index) [4]: 2.9
IC50 [5]: 5.4 ± 0.5 µM
HepG2 SI (selectivity index) [5]: 2.5
IC50 [6]: 9.4 ± 0.5 µM
HeLa SI (selectivity index) [6]: 1.5
IC50 [7]: 6.6 ± 0.1 µM
THP-1 SI (selectivity index) [7]: 2.1
IC50 [8]: 11.6 ± 0.3 µM
MCF-7 SI (selectivity index) [8]: 1.2

COc1cc(/C=C/C(=O)CC(=O)/C=C/c2ccc(O)c(OC)c2)ccc1O [Curcumin, reference compound]
IC50 ([1]; Homo sapiens): 28.3 ± 1.2 µM
IC50 ([2]; Homo sapiens, A549, 24 h): 22.7 ± 1 µM
A549 SI (selectivity index) [2]: 1.2
IC50 ([3]; Homo sapiens, HCT-116): 17.2 ± 0.3 µM
HCT116 SI (selectivity index) [3]: 1.6
IC50 ([4]; Homo sapiens, SGC-7901): 22.8 ± 0.6 µM
SGC7901 SI (selectivity index) [4]: 1.2
IC50 ([5]; Homo sapiens, HepG2, 24 h): 20.7 ± 0.1 µM
HepG2 SI (selectivity index) [5]: 1.4
IC50 ([6]; Homo sapiens, HeLa): 19.4 ± 0.6 µM
HeLa SI (selectivity index) [6]: 1.5
IC50 ([7]; Homo sapiens, THP-1, 24 h): 20.8 ± 0.6 µM
THP-1 SI (selectivity index) [7]: 1.4
IC50 ([8]; Homo sapiens, MCF7): 20.5 ± 0.2 µM
MCF-7 SI (selectivity index) [8]: 1.4

CN1CC(=Cc2cccc(N=Cc3ccc(O)cc3O)c2)C(=O)C(=Cc2ccccc2F)C1 [Compound 98]
IC50 [1]: 17.6 ± 0.2 µM
IC50 [2]: 3.2 ± 0.7 µM
A549 SI (selectivity index) [2]: 5.5
IC50 [3]: 11.4 ± 0.7 µM
HCT116 SI (selectivity index) [3]: 1.5
IC50 [4]: 10.9 ± 0.3 µM
SGC7901 SI (selectivity index) [4]: 1.6
IC50 [5]: 7.5 ± 0.1 µM
HepG2 SI (selectivity index) [5]: 2.3
IC50 [6]: 6.2 ± 0.1 µM
HeLa SI (selectivity index) [6]: 2.8
IC50 [7]: 5.1 ± 0.2 µM
THP-1 SI (selectivity index) [7]: 3.5
IC50 [8]: 10.3 ± 0.7 µM
MCF-7 SI (selectivity index) [8]: 1.7
